Data taken from patent publication EP3959200B1, “NEW TRIAZOLE AND TRIAZOLOTHIADIAZINE DERIVATIVES EXERTING CYTOTOXIC AND APOPTOTIC EFFECTS ON A549 CELLS THROUGH AKT INHIBITION” (Anadolu Universitesi, priority 2020, dated 2022).
In brackets after ≈: the same amount, converted by molar mass.

Tests used:
[1] = tested on: A549 human lung adenocarcinoma cells; assay: MTT cytotoxicity assay; assay type: cell-based; conditions: for IC50: Homo sapiens, A549, MTT, 24 hours, read-out: IC50 values A549 cell line; for SI values: SI= IC50 for NIH/3T3 cell line / IC50 for A549 cell line; for cytotoxic effects on A549 cell line: in the tested concentration range (0.12-500 µg/mL), result in words
Procedure: (§1) In order to be used from this stock, the concentrations ranging from 0.12 to 500 µg/mL (with the highest DMSO ratio of 0.1%) were prepared.
A549 human lung adenocarcinoma cells (ATCC® CCL-185™) were grown in RPMI 1640 medium supplemented with 10% fetal bovine serum, 1% penicillin/streptomycin, in an incubator with carbon dioxide, in a culture medium at 37°C at 95% relative humidity.
(§2) MTT protocol was applied to determine cell viability. […] At the end of the incubation period, 20 µL of MTT dye (5 mg/mL) was added into each well, and the cells were incubated for an additional 4 hours at 37°C. After this process, MTT dye was removed from the cells, 200 µL of DMSO was added to each well and left to incubate for 10 minutes. Color change was detected at 540 nm in the ELx808-IU Bio-Tek plate reader. Inhibition% values were determined for each concentration of compounds. Inhibitory concentration 50 (IC50) values of the compounds were calculated by drawing a dose-response curve with their concentrations against these values. All experiments were carried out in triplicate. The results were given as mean±standard deviation. Inhibition% = 100−[(ODtest compound−ODblank/ODsolvent control−ODblank)×100] [formula]
Selective index (SI) values were determined using the following formula. SI […] IC50 for NIH/3T3 cell line/IC50 for A549 cell line [formula]

[2] = tested on: NIH/3T3 mouse embryonic fibroblast cells; assay: MTT cytotoxicity assay; assay type: cell-based; conditions: for IC50: Mus musculus, NIH3T3, 24 hours, read-out: IC50 values NIH/3T3 cell line
Procedure: as §1
NIH/3T3 mouse embryonic fibroblast cells (ATCC® CRL-1658™) were grown in DMEM medium supplemented with 10% fetal bovine serum, 1% penicillin/streptomycin, in an incubator with carbon dioxide, in a culture medium at 37°C at 95% relative humidity.
as §2

[3] = tested on: A549 cells; assay: FITC Annexin V/PI apoptosis detection by flow cytometry; assay type: cell-based, human; conditions: for Early apoptotic cells % / Late apoptotic cells % / Necrosis % / Viable cells% / apoptotic activity: at IC50 concentrations; for apoptosis induction: flow cytometry, result in words; for apoptotic activity: early plus late apoptotic cells
Procedure: The cells incubated with the compounds were centrifuged at 400 × g for 5 minutes in labeled tubes and washed twice with 1xPBS. Then, the cells were suspended in 1×Annexin-V binding solution at 1×10^6 cells/mL and 100 µL of this cell solution was taken and transferred to tubes. The cells were treated with 5 µL Annexin V FITC and 5 µL of propidium iodide (PI) dyes. Then, the cells were kept at room temperature in the dark for 15 minutes to allow the dye to bind. 400 µL of 1×Annexin-V binding cell solution was transferred to flow cytometry tubes and the amount of early and late apoptotic cells was determined relative to the positive control using the BD FACSAria flow cytometer FACSDiva version 6.1.1 software.

[4] = tested on: Akt; assay: Akt activity assay (Akt colorimetric in cell ELISA); assay type: cell-based, human; conditions: for Inhibition % / IC50 value (Akt inhibitory effects): 24 hours; for Akt inhibitory effects: result in words
Procedure: Briefly, the media was removed from the wells and 100 µL of 4% formaldehyde was added. The plate was incubated for 15 minutes in a fume hood. Formaldehyde was removed and the plate was washed twice with 1X […] solution (TBS) to 100 µL/well. 1X TBS was removed and 100 µL of 1X permeabilization buffer was added to each well and left at room temperature for 15 minutes. After removing the 1X permeabilization buffer, the wells were washed once with 100 µL of 1X TBS. 1X TBS was removed and 100 µL of the quenching solution was added to the wells and left at room temperature for 20 minutes. Then, this solution was removed. The plate was washed once with 1X TBS, 100 µL of blocking buffer was added to the wells and left at room temperature for 30 minutes. At the end of this period, the blocking buffer was removed and 50 µL of primary antibody was added to the wells. The plate was closed with a sealer and incubated overnight at 4°C. The primary antibody was removed and plate wells were washed three times with 100 µL of wash buffer. After removing the wash buffer, 100 µL of diluted horseradish peroxidase (HRP) conjugate was added to the wells. It was incubated for 30 minutes at room temperature. After removing this conjugate, 100 µL of 3,3',5,5'-tetramethylbenzidine (TMB) stop solution was added and absorbance was measured at 450 nm for 30 minutes. The experiment was carried out in triplicate. The values of the blank wells were subtracted from the values of the untreated control and treated cells. The Akt activity% was determined as the relative absorbance of treated versus untreated control cells.

Row | Structure (SMILES) | IC50 [1] [µg/mL] | SI values [1] | IC50 [2] [µg/mL] | Early apoptotic cells % [3] [%] | Late apoptotic cells % [3] [%] | Necrosis % [3] [%] | Viable cells% [3] [%] | also measured
1 | c1ccc(C2=Nn3c(CCc4cccnc4)nnc3SC2)cc1 [Compound 2a, 6-Phenyl-3-(2-(pyridine-3-yl)ethyl)-7H-[1,2,4]triazolo[3,4-b][1,3,4]thiadiazine] | 7.23 ± 1.62 (≈ 22.5 µM) | >69.16 | > 500 | 1.7 | 2.7 | 0.7 | 95.0 | Inhibition % ([4]; 1.81 µg/mL): 8.75±2.77%; Inhibition % ([4]; 3.62 µg/mL): 7.69±2.91%; Inhibition % ([4]; 7.23 µg/mL): 35.45±5.82%; Akt inhibitory effects [4]: did not show significant Akt inhibitory effects
2 | COc1ccc(C2=Nn3c(CCc4cccnc4)nnc3SC2)cc1 [Compound 2i, G-(4-Methoxyphenyl)-3-(2-(pyridine-3-yl)ethyl)-7H-[1,2,4]triazolo[3,4-b][1,3,4] thiadiazine] | 13.7 ± 2.52 (≈ 38.9 µM) | – | < 3.9 | – | – | – | – | IC50 values NIH/3T3 cell line ([2]; 24 hours): <3.90 µg/mL
3 | COc1ccc2nc(NC(=O)CSc3nnc(CCc4cccnc4)n3N)sc2c1 [Compound 3g, 2-((4-Amino-5-(2-(pyridine-3-yl)ethyl)-4H-1,2,4-triazole-3-yl)thio)-N-(6-methoxybenzothiazole-2-yl)acetamide] | 0.48 ± 0.03 (≈ 1.09 µM) | – | > 500 | 0.9 | 5.5 | 9.1 | 84.5 | apoptosis induction [3]: induce apoptosis; Inhibition % ([4]; 1.95 µg/mL): 26.42±4.59%; Inhibition % ([4]; 3.90 µg/mL): 88.87±5.31%; IC50 value (Akt inhibitory effects) [4]: 2.60 ± 0.10 µg/mL (≈ 5.89 µM)
4 | Nn1c(CCc2cccnc2)nnc1SCC(=O)Nc1nc2ccc(F)cc2s1 [Compound 3c, 2-((4-Amino-5-(2-(pyridine-3-yl)ethyl)-4H-1,2,4-triazole-3-yl)thio)-N-(6-fluorobenzothiazole-2-yl)acetamide] | 0.27 ± 0.02 (≈ 0.629 µM) | 629.63 | 170 ± 17.3 (≈ 396 µM) | 0.5 | 3.7 | 4.0 | 91.8 | Inhibition % ([4]; 0.07 µg/mL): 15.28±5.56%; Inhibition % ([4]; 0.14 µg/mL): 36.64±13.39%; Inhibition % ([4]; 0.27 µg/mL): 39.84±6.49%; Akt inhibitory effects [4]: did not show significant Akt inhibitory effects
5 | Nn1c(CCc2cccnc2)nnc1SCC(=O)Nc1nc2ccc(Cl)cc2s1 [Compound 3d, 2-((4-Amino-5-(2-(pyridine-3-yl)ethyl)-4H-1,2,4-triazole-3-yl)thio)-N-(6-chlorobenzothiazole-2-yl)acetamide] | 0.34 ± 0.02 (≈ 0.762 µM) | 14.41 | 4.9 ± 0.36 (≈ 11 µM) | 1.8 | 6.3 | 4.8 | 87.2 | apoptotic activity [3]: 8.1%; apoptosis induction [3]: induce apoptosis; Inhibition % ([4]; 0.98 µg/mL): 80.23±7.70%; Inhibition % ([4]; 1.95 µg/mL): 76.94±10.75%; Inhibition % ([4]; 3.90 µg/mL): 100.00%; IC50 value (Akt inhibitory effects) [4]: 0.19 ± 0.05 µg/mL (≈ 0.426 µM)
6 | Cc1ccc2nc(NC(=O)CSc3nnc(CCc4cccnc4)n3N)sc2c1 [Compound 3f, 2-((4-Amino-5-(2-(pyridine-3-yl)ethyl)-4H-1,2,4-triazole-3-yl)thio)-N-(6-methylbenzothiazole-2-yl)acetamide] | 6.5 ± 0.5 (≈ 15.3 µM) | >76.92 | > 500 | 1.9 | 7.7 | 5.8 | 84.6 | apoptotic activity [3]: 9.6%; apoptosis induction [3]: induce apoptosis; Inhibition % ([4]; 3.25 µg/mL): 37.59±9.46%; Inhibition % ([4]; 6.50 µg/mL): 40.29±11.27%; Akt inhibitory effects [4]: did not show significant Akt inhibitory effects
7 | Nn1c(CCc2cccnc2)nnc1SCC(=O)Nc1nc2ccc(Br)cc2s1 [Compound 3e, 2-((4-Amino-5-(2-(pyridine-3-yl)ethyl)-4H-1,2,4-triazole-3-yl)thio)-N-(6-bromobenzothiazole-2-yl)acetamide] | 362 ± 12.6 (≈ 737 µM) | >1.38 | > 500 | – | – | – | – | –
8 | Nn1c(CCc2cccnc2)nnc1SCC(=O)Nc1nc2ccccc2s1 [Compound 3b, 2-((4-Amino-5-(2-(pyridine-3-yl)ethyl)-4H-1,2,4-triazole-3-yl)thio)-N-(benzothiazole-2-yl)acetamide] | 0.68 ± 0.18 (≈ 1.65 µM) | 34.31 | 23.3 ± 6.11 (≈ 56.7 µM) | 0.7 | 3.0 | 3.2 | 93.1 | Inhibition % ([4]; 0.98 µg/mL): 14.58±4.29%; Inhibition % ([4]; 3.90 µg/mL): 72.89±5.45%; IC50 value (Akt inhibitory effects) [4]: 2.23 ± 0.12 µg/mL (≈ 5.42 µM)
9 | CCn1c(-c2nonc2N)nc2c(C#CC(C)(C)O)ncc(OC[C@H]3CCCNC3)c21 [GSK690693, reference compound] | 6.15 ± 0.49 (≈ 14.5 µM) | – | – | – | – | – | – | Inhibition % ([4]; 1.50 µg/mL): 34.46±1.47%; Inhibition % ([4]; 3.075 µg/mL): 49.88±5.55%; Inhibition % ([4]; 6.15 µg/mL): 100%; IC50 value (Akt inhibitory effects) [4]: 2.93 ± 0.23 µg/mL (≈ 6.89 µM)
10 | c1cncc(CCc2nnc3n2N=C(c2ccc4ccccc4c2)CS3)c1 [Compound 2j, 6-(Naphthalene-2-yl)-3-(2-(pyridine-3-yl)ethyl)-7H-[1,2,4]triazolo[3,4-b][1,3,4] thiadiazine] | 4 (≈ 10.8 µM) | 1.67 | 6.66 ± 1.04 (≈ 17.9 µM) | 1.0 | 3.6 | 5.0 | 90.3 | Inhibition % ([4]; 2.0 µg/mL): 17.80±2.08%; Inhibition % ([4]; 4.0 µg/mL): 48.23±7.29%; Akt inhibitory effects [4]: did not show significant Akt inhibitory effects
11 | N#Cc1ccc(C2=Nn3c(CCc4cccnc4)nnc3SC2)cc1 [Compound 2f, G-(4-Cyanophenyl)-3-(2-(pyridine-3-yl)ethyl)-7H-[1,2,4]triazolo[3,4-b][1,3,4]thiadiazine] | > 500 | – | > 500 | – | – | – | – | cytotoxic effects on A549 cell line [1]: did not show cytotoxic effects
12 | Brc1ccc(C2=Nn3c(CCc4cccnc4)nnc3SC2)cc1 [Compound 2e, G-(4-Bromophenyl)-3-(2-(pyridine-3-yl)ethyl)-7H-[1,2,4]triazolo[3,4-b][1,3,4]thiadiazine] | > 500 | – | > 500 | – | – | – | – | cytotoxic effects on A549 cell line [1]: did not show cytotoxic effects
13 | FC(F)(F)c1ccc(C2=Nn3c(CCc4cccnc4)nnc3SC2)cc1 [Compound 2g, 3-(2-(Pyridine-3-yl)ethyl)-6-(4-(trifluoromethyl)phenyl)-7H-[1,2,4]triazolo[3,4-b][1,3,4]thiadiazine] | > 500 | – | > 500 | – | – | – | – | cytotoxic effects on A549 cell line [1]: did not show cytotoxic effects
14 | Cc1ccc(C2=Nn3c(CCc4cccnc4)nnc3SC2)cc1 [Compound 2h, 3-(2-(Pyridine-3-yl)ethyl)-6-(p-tolyl)-7H-[1,2,4]triazolo[3,4-b][1,3,4]thiadiazine] | 41.3 ± 0.58 (≈ 123 µM) | >12.10 | > 500 | – | – | – | – | –
